According to US20140045744A1, “CULTURED COLLECTION OF GUT MICROBIAL COMMUNITY” (THE WASHINGTON UNIVERSITY, priority 2011, published 2014):

Test system: E. coli MegaX DH10B T1R cells
Assay type: cell-based, Escherichia coli
Settings: for MIC: antibiotics used in functional metagenomic selections of E. coli libraries
Excerpt: To compare further the functions represented in the complete and cultured microbiota independent of annotation, antibiotic-resistance genes were captured from their microbiomes in expression vectors in Escherichia coli. Each E. coli library contained ˜1 GB of 1.5- to 4-kB fragments of microbiome DNA subcloned into an expression vector and was screened against a panel of 15 antibiotics and clinically relevant antibiotic combinations (Table 3). Genes encoding resistance to the same 14 antibiotics were captured in libraries prepared from complete and cultured fecal samples (FIG. 3G and Table 4). In one example, a screen for DNA fragments that confer resistance to the aminoglycoside amikacin produced candidate genes from the microbiomes of both complete and cultured microbial communities from Donor 1 but not from Donor 2. Two genes conferring amikacin resistance (either the 16S rRNA methylase rmtD or the aminoglycoside phosphotransferase aphA-3) were identified in 70% of the DNA fragments captured in selections for this phenotype.
DNA fragments from complete and cultured communities were cloned into an expression vector, electroporated into Escherichia coli, and screened for their ability to confer resistance to 15 different antibiotics. To this end, 10 μg of DNA purified from the two human donors' fecal microbiota, from the derived cultured communities, plus pooled contents of the arrayed strain collection were sheared to 1.5- to 4-kB fragments (Bioruptor XL), followed by size selection (1% agarose gel electrophoresis). Sheared DNA then was endrepaired (Epicentre Endlt Kit), column-purified (Qiagen Qia-Quick PCR Purification Kit), and concentrated in a vacuum evaporator (SpeedVac). […] Approximately 500 ng of the DNA fragments were ligated to 100 ng of the linearized vector in an overnight ligation reaction (Epicentre FastLink Ligation Kit). The ligation reaction was desalted by dialysis in double-distilled H2O and electroporated into E. coli MegaX DH10B T1R cells (Invitrogen). After 1 h of recovery, a small (1 μL) aliquot of the library was titered with serial dilutions onto LB agar plates containing 50 μg/mL kanamycin (to select for pZE21 transformants) and incubated at 37° C. for 16 h. The insert size distribution for each library was characterized by gel electrophoresis of amplicons obtained using primers flanking the HincII site in the multiple cloning site of pZE21 MCS1. The total size of each library was estimated by multiplying average insert size by the number of cfu in a given library. The remainder of the recovered cells was inoculated into 10 mL LB containing 50 μg/mL kanamycin and grown overnight, with shaking, at 27° C. for ˜16 h. The culture subsequently was diluted with an equal volume of LB medium containing 30% glycerol and stored at −80° C. before screening.
For functional selections, 100 μL of each library freezer stock (corresponding to 0.5-1×10^8 cfu) was plated on an LB agar plate containing kanamycin (50 μg/mL) plus one of 15 different antibiotics (Table 3). The total number of cells plated on each antibiotic represented ˜10 copies of each original unique transformant. Antibiotic-resistant colonies were scored after plates had been incubated at 37° C. for 16 h. Inserts contained in colonies with amikacin-, piperacillin- and piperacillin/tazobactam-resistant phenotypes were subjected to bidirectional Sanger sequencing (Beckman Coulter Genomics) using primers pZE21—81—104—57C (5′-[…] GGT-3′; SEQ ID NO 5) and pZE21—151—174rc—58C (5′-[…]-3′; SEQ ID NO 6). Resulting reads were trimmed to remove low-quality and vector sequences and subjected to within-library contig assembly (≧200 bp of 97% ID sequence required). Contigs and unassembled reads were mapped by BLAST to the National Center for Biotechnology Information (NCBI) nonredundant database and to a custom database of 122human gutmicrobial genomes. All sequence datasets have been deposited in the NCBI Sequence Read Archive (SRA) under accession no. […]

Q: With O=C(N[C@H](CO)[C@H](O)c1ccc([N+](=O)[O-])cc1)C(Cl)Cl [Cloramphenicol] as the molecule, how does the “MIC” value read?
A: 8000 µg/mL

Q: For CN(C)[C@@H]1C(O)=C(C(N)=O)C(=O)[C@@]2(O)C(O)=C3C(=O)c4c(O)cccc4[C@@](C)(O)[C@H]3[C@H](O)[C@@H]12 [Oxytetracyline], which “MIC” value is on record?
A: 8000 µg/mL

Q: For CN(C)[C@@H]1C(=O)C(C(N)=O)=C(O)[C@@]2(O)C(=O)C3=C(O)c4c(O)cccc4[C@@](C)(O)[C@H]3C[C@@H]12 [Tetracyline], which “MIC” value is on record?
A: 8000 µg/mL

Q: For Gentamicin, which “MIC” value is on record?
A: 16000 µg/mL

Q: Penicillin was tested. Which “MIC” value did it give?
A: 128000 µg/mL

Q: For Piperacillin + Tazobactam, which “MIC (mg/mL), PI of PI + TZ” value (piperacillin part of the combination) is on record?
A: 16 mg/mL

Q: And the “MIC (mg/mL), TZ of PI + TZ” value (tazobactam part of the combination)?
A: 4 mg/mL

Q: How did the “MIC (mg/mL), SX of TR + SX” value (sulfamethoxazole part of the combination) turn out when Trimethoprim + Sulfamethoxazole was run?
A: 38 mg/mL

Q: And the “MIC (mg/mL), TR of TR + SX” value (trimethoprim part of the combination)?
A: 2 mg/mL
